Values quoted from earlier work in US20240316118A1, “ANTIVIRAL NASAL SPRAY FLAVONOIDS?BEE PROPOLIS” (priority 2022, published 2024).
Values after ≈ are worked out from the molar mass of the structure shown. Like-named read-outs stand apart in the source and are kept apart here.

Assays:
Phosphoprotein P = details: Ref. [32]; for Molecular Mechanisms: viral replication: RSV
SARS-CoV = details: Vero E6 cells; read-out: half-effective concentration (EC50), SARS-CoV infection
NS5B polymerase = NS5B polymerase (Hepatitis C virus genotype 1a, UniProt P26664); details: for Molecular Mechanisms: HCV replication: NS5B polymerase, Refs. [33], [40]
Sequence of NS5B polymerase (P26664 2421-3011): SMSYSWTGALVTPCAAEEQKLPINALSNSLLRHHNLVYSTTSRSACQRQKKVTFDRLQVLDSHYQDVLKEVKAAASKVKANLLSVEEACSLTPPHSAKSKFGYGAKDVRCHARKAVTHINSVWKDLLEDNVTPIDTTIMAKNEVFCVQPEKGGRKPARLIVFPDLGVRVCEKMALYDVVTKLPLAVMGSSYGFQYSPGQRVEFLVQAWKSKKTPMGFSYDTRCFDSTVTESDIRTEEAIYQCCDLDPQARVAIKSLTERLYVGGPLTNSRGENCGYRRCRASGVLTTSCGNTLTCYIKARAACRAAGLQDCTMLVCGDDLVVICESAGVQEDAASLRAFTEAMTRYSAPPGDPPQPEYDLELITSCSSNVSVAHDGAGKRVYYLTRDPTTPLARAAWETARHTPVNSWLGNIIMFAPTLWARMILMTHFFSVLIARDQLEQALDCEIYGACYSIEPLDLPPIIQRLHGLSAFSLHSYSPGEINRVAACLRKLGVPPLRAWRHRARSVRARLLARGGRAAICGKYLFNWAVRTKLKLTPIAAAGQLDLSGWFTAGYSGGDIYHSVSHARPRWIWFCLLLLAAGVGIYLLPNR

HCV replicase = details: Ref. [19]
NS1 = NS1 (Dengue virus type 2, UniProt P29990); details: Ref. [23] (molecular docking)
Sequence of NS1 (P29990 776-1127 limits assumed): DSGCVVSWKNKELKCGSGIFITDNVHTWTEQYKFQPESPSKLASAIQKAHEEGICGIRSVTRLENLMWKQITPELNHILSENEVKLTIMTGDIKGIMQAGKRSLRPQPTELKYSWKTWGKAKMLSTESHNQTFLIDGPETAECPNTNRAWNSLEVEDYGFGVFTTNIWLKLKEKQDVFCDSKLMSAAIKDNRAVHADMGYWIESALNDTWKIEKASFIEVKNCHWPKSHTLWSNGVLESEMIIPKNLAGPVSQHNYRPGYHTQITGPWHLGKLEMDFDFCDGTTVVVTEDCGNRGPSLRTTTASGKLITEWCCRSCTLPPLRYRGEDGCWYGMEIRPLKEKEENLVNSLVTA

PEDV = details: Vero cells
Vero cells = details: PEDV study
Influenza virions = details: Influenza A/WS/33, Ref. [37]
Envelope protein, 2 = Envelope protein, 2 (Hepatitis C virus genotype 1a, UniProt P26664); details: HCV Envelope protein 2, Ref. [41]
Sequence of Envelope protein, 2 (P26664 384-746): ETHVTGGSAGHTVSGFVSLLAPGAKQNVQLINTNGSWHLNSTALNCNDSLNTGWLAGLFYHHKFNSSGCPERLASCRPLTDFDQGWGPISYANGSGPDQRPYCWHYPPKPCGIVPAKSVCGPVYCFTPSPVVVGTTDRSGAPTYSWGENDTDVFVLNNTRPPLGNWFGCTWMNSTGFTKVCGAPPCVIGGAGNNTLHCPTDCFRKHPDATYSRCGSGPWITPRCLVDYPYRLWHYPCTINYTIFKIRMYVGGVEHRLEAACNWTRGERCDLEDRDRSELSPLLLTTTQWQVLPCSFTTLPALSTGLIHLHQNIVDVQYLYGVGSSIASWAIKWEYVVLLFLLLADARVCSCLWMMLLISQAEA

NS5A, HSP70, HCV virions = details: Ref. [41]
Reverse transcriptase = Reverse transcriptase (Human immunodeficiency virus type 1 group M subtype B, UniProt P04585); details: Refs. [43], [31]
HIV protease = HIV protease (Human immunodeficiency virus type 1 group M subtype B, UniProt P04585); details: Ref. [27] (computational)
NTCP receptor = NTCP receptor (Homo sapiens, UniProt Q14973)
Sequence of NTCP receptor (Q14973 whole entry): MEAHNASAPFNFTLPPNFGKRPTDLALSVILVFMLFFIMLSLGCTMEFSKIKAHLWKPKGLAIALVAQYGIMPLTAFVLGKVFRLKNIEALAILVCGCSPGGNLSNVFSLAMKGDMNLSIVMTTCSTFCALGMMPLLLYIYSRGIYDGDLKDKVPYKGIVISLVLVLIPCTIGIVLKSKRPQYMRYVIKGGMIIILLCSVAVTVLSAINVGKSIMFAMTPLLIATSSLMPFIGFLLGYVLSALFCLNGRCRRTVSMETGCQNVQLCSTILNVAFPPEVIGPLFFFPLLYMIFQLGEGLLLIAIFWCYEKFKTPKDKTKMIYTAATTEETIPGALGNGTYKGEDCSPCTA

NOX4 = details: NOX4, Ref. [24]
NS3 protease = NS3 protease (Hepatitis C virus genotype 1a, UniProt P26664); details: for Molecular Mechanisms: HCV replication: NS3 protease
Sequence of NS3 protease (P26664 1027-1657): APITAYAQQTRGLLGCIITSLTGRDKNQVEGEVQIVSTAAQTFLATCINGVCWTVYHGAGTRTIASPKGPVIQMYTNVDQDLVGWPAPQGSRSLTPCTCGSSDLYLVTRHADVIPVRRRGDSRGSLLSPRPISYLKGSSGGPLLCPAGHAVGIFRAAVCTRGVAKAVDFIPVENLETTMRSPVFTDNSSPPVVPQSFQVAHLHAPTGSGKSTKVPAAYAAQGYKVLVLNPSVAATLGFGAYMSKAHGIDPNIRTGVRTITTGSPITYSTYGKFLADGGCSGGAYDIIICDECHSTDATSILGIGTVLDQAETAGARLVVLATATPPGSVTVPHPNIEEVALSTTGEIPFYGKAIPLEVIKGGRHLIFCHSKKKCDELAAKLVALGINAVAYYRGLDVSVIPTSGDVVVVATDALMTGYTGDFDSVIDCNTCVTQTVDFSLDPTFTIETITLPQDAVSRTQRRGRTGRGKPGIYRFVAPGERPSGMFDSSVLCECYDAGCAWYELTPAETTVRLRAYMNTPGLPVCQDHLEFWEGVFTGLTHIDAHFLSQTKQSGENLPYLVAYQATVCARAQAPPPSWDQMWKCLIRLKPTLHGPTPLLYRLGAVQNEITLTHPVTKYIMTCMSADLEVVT
Sequence of NS3 protease (P26664 1658-1711): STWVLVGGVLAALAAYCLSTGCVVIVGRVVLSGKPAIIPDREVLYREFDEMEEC

DENV-2 virions = details: DENV-2, Ref. [40]
cytomegalovirus = details: inoculated HeLa cells; read-out: half inhibitory concentration (IC50), replication of cytomegalovirus
[1] = tested on: Dengue virus type 2 (DENV-2); details: Vero cells
human coronavirus OC43 = details: at a concentration of 60 μg/mL
bovine coronavirus NCDCV = details: at a concentration of 60 μg/mL
Rotavirus virions = details: Rhesus Rotavirus, Ref. [20]

What does the source list for `COc1ccc(-c2cc(=O)c3c(OC)c(OC)c(OC)c(OC)c3o2)cc1` [Tangeretin]?
Molecular Mechanisms: viral replication (Phosphoprotein P): Inhibition of viral replication,; Molecular Mechanisms: RSV entry into cells (Phosphoprotein P): Inhibition of RSV entry into cells

What does the source list for `O=c1cc(-c2ccc(O)c(O)c2)oc2cc(O)cc(O)c12` [Luteolin]?
EC50 (SARS-CoV): 10.6 µM; Molecular Mechanisms: HCV replication (NS5B polymerase): Inhibition of HCV; Molecular Mechanisms: HCV replication (HCV replicase): Inhibition HCV; CC50 (Vero E6 cells): 155 µM

For `CC(C)=CC[C@@]12Oc3cc(O)c([C@H]4C=C(C)C[C@H](c5ccc(O)cc5O)[C@H]4C(=O)c4ccc(O)cc4O)c(O)c3C(=O)[C@]1(O)Oc1cc(O)ccc12` [sanggenon O], which “Molecular Mechanisms: NS1 glycosylation” value (NS1) is on record?
Its value is “Inhibition of NS1 glycosylation”.

What does the source list for `C[C@@H]1O[C@@H](Oc2cc(O)c3c(=O)c(O)c(-c4ccc(O)c(O)c4)oc3c2)[C@H](O)[C@H](O)[C@H]1O` [quercetin 7-O-rhamnoside]?
IC50, PEDV replication (PEDV): 0.014 µg/mL (≈ 0.0312 µM); 50% cytotoxicity concentration (CC50) (Vero cells): 100 µg/mL

With `C[C@@H]1O[C@@H](Oc2c(-c3ccc(O)c(O)c3)oc3cc(O)cc(O)c3c2=O)[C@H](O)[C@H](O)[C@H]1O` [Quercetin-3-rhamnoside] as the compound, how does the “Molecular Mechanisms: virus infection” value (Influenza virions) read?
The value was “Inhibition of virus infection”.

With `O=C1C[C@@H](c2ccc(O)cc2)Oc2cc(O)cc(O)c21` [Naringenin] as the compound, how does the “Molecular Mechanisms: virion assembly” value (Envelope protein, 2) read?
The value was “Inhibition of virion assembly,”.

What about the “Molecular Mechanisms: viral translation” value (NS5A, HSP70, HCV virions) of the same compound?
Its value is “Inhibition Of viral”.

What about the “Molecular Mechanisms: virion assembly” value (NS5A, HSP70, HCV virions) of the same compound?
The value was “Inhibition of virion”.

Which results are given for `COc1ccc(-c2cc(=O)c3c(OC)c(OC)c(OC)c(OC)c3o2)cc1OC` [Nobiletin]?
Molecular Mechanisms: viral replication (Phosphoprotein P): Inhibition of viral replication,; Molecular Mechanisms: RSV entry into cells (Phosphoprotein P): Inhibition of RSV entry into cells

Which results are given for epigallocatechin-3-gallate [EGCG]?
Molecular Mechanisms: HIV replication (Reverse transcriptase): Inhibition of HIV; Molecular Mechanisms: virion production (HIV protease): Inhibition virion production; Molecular Mechanisms: NS1 glycosylation (NS1): Inhibition of NS1 glycosylation; Molecular Mechanisms: HBV entry into cells (NTCP receptor): Inhibition of HBV entryinto

Which “Molecular Mechanisms: HSV-1 replication” value (NOX4) does the source give for `CC1O[C@@H](OC[C@H]2OC(Oc3cc4c(O)cc(O)cc4[o+]c3-c3cc(O)c(O)c(O)c3)[C@H](O)C(O)C2O)C(O)C(O)[C@H]1O` (stereo partly drawn) [Delphinidin-3-rutinoside] here?
Its value is “Inhibition of HSV-1”.

With `O=C1c2c(O)cc(O)cc2OC(c2ccc(O)cc2)C1C1C(=O)c2c(O)cc(O)cc2OC1c1ccc(O)cc1` (stereo not drawn) [Chamaejasmin] as the compound, how does the “Molecular Mechanisms: NS1 glycosylation” value (NS1) read?
Its value is “Inhibition of NS1 glycosylation”.

Which “Molecular Mechanisms: HCV replication” value (NS3 protease) does the source give for `O=c1cc(-c2ccc(O)cc2)oc2cc(O)cc(O)c12` [Apigenin] here?
Its value is “Inhibition of HCV”.

And the “Molecular Mechanisms: HCV replication” value (HCV replicase)?
Its value is “Inhibition HCV”.

With Catechin as the compound, how does the “Molecular Mechanisms: viral translation” value (NS5A, HSP70, HCV virions) read?
Its value is “Inhibition Of viral”.

And the “Molecular Mechanisms: virion assembly” value (NS5A, HSP70, HCV virions)?
Its value is “Inhibition of virion”.

Which “Molecular Mechanisms: virion production” value (HIV protease) does the source give for `O=c1c(O)c(-c2ccc(O)cc2)oc2cc(O[C@@H]3O[C@H](CO)[C@@H](O)[C@H](O)[C@H]3O)cc(O)c12` [Kaempferol-7-O-glucoside] here?
Its value is “Inhibition virion production”.

Which results are given for `O=C(O)[C@H]1O[C@@H](Oc2cc3oc(-c4ccccc4)cc(=O)c3c(O)c2O)[C@H](O)[C@@H](O)[C@@H]1O` [Baicalin]?
Molecular Mechanisms: viral replication (DENV-2 virions): Inhibition of viral replication,; Molecular Mechanisms: viricidal activity (DENV-2 virions): Viricidal activity

What does the source list for `O=c1c(O)c(-c2ccc(O)c(O)c2)oc2cc(O)cc(O)c12` [Quercetin, 2-(3,4-dihydroxyphenyl)-3,5,7-trihydroxy-4H-1 benzopyran-4-one]?
Molecular Mechanisms: virion production (NS3 protease; HCV NS3 protease): Inhibition of virion production; Molecular Mechanisms: HCV replication (NS3 protease): HCV NS3 protease Inhibition of HCV replication,; Molecular Mechanisms: HCV replication (NS5B polymerase): Inhibition of HCV; Molecular Mechanisms: virion assembly (Envelope protein, 2): Inhibition of virion assembly,; CC50 (Vero E6 cells; read-out: cytotoxicity CC50, Vero E6 cells): 3320 µM; IC50 (cytomegalovirus): 3.2 ± 0.8 µM; DENV-2 ribonucleic acid (RNA) reduction [1]: 67%; IC50, DENV-2 replication [1]: 35.7 µg/mL (≈ 118 µM); reduced infectivity of human coronavirus OC43 (human coronavirus OC43): 50%; reduced infectivity of bovine coronavirus NCDCV (bovine coronavirus NCDCV): 50%; Molecular Mechanisms: viral translation (NS5A, HSP70, HCV virions): Inhibition Of viral; Molecular Mechanisms: virion assembly (NS5A, HSP70, HCV virions): Inhibition of virion

With `O=c1cc(-c2ccc(O)cc2)oc2cc(O[C@@H]3O[C@H](CO)[C@@H](O)[C@H](O)[C@H]3O)cc(O)c12` [Apigenin-7-O-glucoside] as the compound, how does the “Molecular Mechanisms: viral replication” value (Rotavirus virions) read?
The value was “Inhibition viral”.

With `O=c1c(O)c(-c2ccc(O)c(O)c2)oc2cc(O)c(O)c(O)c12` [Quercetagetin] as the compound, how does the “Molecular Mechanisms: RNA binding to NS5B” value (NS5B polymerase; HCV, Ref. [39]) read?
Its value is “Inhibition of RNA binding to NS5B”.
